# Measured values reported in PubChem BioAssay (NCI).
#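 Cultured in 96-well plates, cells were exposed to test compound for 48 hours across five concentrations. GI50: concentration for 50% inhibition of growth. TGI marks complete inhibition of growth.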
# What was measured:
# Assay in all cases: NCI tumour cell line growth inhibition, 48 h
# M14 melanoma = test system: M14 melanoma
# HCT-15 colon = test system: HCT-15 colon
# HOP-62 NSCLC = test system: HOP-62 NSCLC
# NCI-H522 lung = test system: NCI-H522 lung
# OVCAR-8 ovarian = test system: OVCAR-8 ovarian
# SK-MEL-28 melanoma = test system: SK-MEL-28 melanoma
# SNB-19 CNS = test system: SNB-19 CNS
# SK-MEL-2 melanoma = test system: SK-MEL-2 melanoma
# NCI-H226 lung = test system: NCI-H226 lung
# U251 CNS = test system: U251 CNS
# NCI-H23 lung = test system: NCI-H23 lung
# HOP-92 NSCLC = test system: HOP-92 NSCLC
# SF-539 CNS = test system: SF-539 CNS
# 786-0 renal = test system: 786-0 renal
# IGROV1 ovarian = test system: IGROV1 ovarian
# SN12C renal = test system: SN12C renal
# T-47D breast = test system: T-47D breast
# UACC-257 melanoma = test system: UACC-257 melanoma
# A549 NSCLC = test system: A549 NSCLC
# NCI-H460 lung = test system: NCI-H460 lung
# HCC-2998 colon = test system: HCC-2998 colon
# COLO 205 colon = test system: COLO 205 colon
# A498 renal = test system: A498 renal
# MDA-MB-231 breast = test system: MDA-MB-231 breast
# CCRF-CEM leukemia = test system: CCRF-CEM leukemia
# RPMI-8226 leukemia = test system: RPMI-8226 leukemia
# NCI/ADR-RES ovarian = test system: NCI/ADR-RES ovarian
# HS 578T breast = test system: HS 578T breast
# MOLT-4 leukemia = test system: MOLT-4 leukemia
# EKVX NSCLC = test system: EKVX NSCLC
# SW-620 colon = test system: SW-620 colon
# DU-145 prostate = test system: DU-145 prostate
# HL-60(TB) leukemia = test system: HL-60(TB) leukemia
# PC-3 prostate = test system: PC-3 prostate
# TK-10 renal = test system: TK-10 renal
# HCT-116 colon = test system: HCT-116 colon
# KM12 colon = test system: KM12 colon
# OVCAR-3 ovarian = test system: OVCAR-3 ovarian
# SK-MEL-5 melanoma = test system: SK-MEL-5 melanoma
# BT-549 breast = test system: BT-549 breast
# MCF7 breast = test system: MCF7 breast
# K-562 leukemia = test system: K-562 leukemia
# HT29 colon = test system: HT29 colon
# UO-31 renal = test system: UO-31 renal
# LOX IMVI melanoma = test system: LOX IMVI melanoma
# CAKI-1 renal = test system: CAKI-1 renal
# OVCAR-4 ovarian = test system: OVCAR-4 ovarian
# SF-268 CNS = test system: SF-268 CNS
# SF-295 CNS = test system: SF-295 CNS
# RXF 393 renal = test system: RXF 393 renal
# MDA-MB-435 = test system: MDA-MB-435
# OVCAR-5 ovarian = test system: OVCAR-5 ovarian
# ACHN renal = test system: ACHN renal
# MALME-3M melanoma = test system: MALME-3M melanoma
# UACC-62 melanoma = test system: UACC-62 melanoma
# SR leukemia = test system: SR leukemia
# SK-OV-3 ovarian = test system: SK-OV-3 ovarian
# SNB-75 CNS = test system: SNB-75 CNS
smiles,measurement,setting,value
CCOC(=O)C1=C(C)N(Cc2ccc(Cl)cc2Cl)C2(O)C(OC)CC(=O)C3C(=O)N(c4ccccc4)C(=O)C132 (stereo not given),TGI,M14 melanoma,13.5 µM
same,TGI,HCT-15 colon,2.64 µM
same,TGI,HOP-62 NSCLC,2.51 µM
same,TGI,NCI-H522 lung,7.56 µM
same,TGI,OVCAR-8 ovarian,6.19 µM
same,TGI,SK-MEL-28 melanoma,4.37 µM
same,TGI,SNB-19 CNS,11.8 µM
same,TGI,SK-MEL-2 melanoma,7.01 µM
same,TGI,NCI-H226 lung,9.02 µM
same,TGI,U251 CNS,3.69 µM
same,TGI,NCI-H23 lung,15.7 µM
same,TGI,HOP-92 NSCLC,7.95 µM
same,TGI,SF-539 CNS,12.7 µM
same,TGI,786-0 renal,4.11 µM
same,TGI,IGROV1 ovarian,16.9 µM
same,TGI,SN12C renal,9.9 µM
same,TGI,T-47D breast,2.57 µM
same,TGI,UACC-257 melanoma,18.2 µM
same,TGI,A549 NSCLC,12.4 µM
same,TGI,NCI-H460 lung,12.5 µM
same,TGI,HCC-2998 colon,5.29 µM
same,TGI,COLO 205 colon,13.4 µM
same,TGI,A498 renal,22.7 µM
same,TGI,MDA-MB-231 breast,7.16 µM
same,TGI,CCRF-CEM leukemia,4.11 µM
same,TGI,RPMI-8226 leukemia,8.61 µM
same,TGI,NCI/ADR-RES ovarian,7.63 µM
same,TGI,HS 578T breast,92.8 µM
same,TGI,MOLT-4 leukemia,7.82 µM
same,TGI,EKVX NSCLC,16.7 µM
same,TGI,SW-620 colon,7.15 µM
same,TGI,DU-145 prostate,2.75 µM
same,TGI,HL-60(TB) leukemia,6.9 µM
same,TGI,PC-3 prostate,15.1 µM
same,TGI,TK-10 renal,22.8 µM
same,TGI,HCT-116 colon,4.12 µM
same,TGI,KM12 colon,9.03 µM
same,TGI,OVCAR-3 ovarian,3.44 µM
same,TGI,SK-MEL-5 melanoma,16.2 µM
same,TGI,BT-549 breast,5.61 µM
same,TGI,MCF7 breast,8.46 µM
same,TGI,K-562 leukemia,3.87 µM
same,TGI,HT29 colon,4 µM
same,TGI,UO-31 renal,18.7 µM
same,TGI,LOX IMVI melanoma,2.23 µM
same,TGI,CAKI-1 renal,19.5 µM
same,TGI,OVCAR-4 ovarian,8.05 µM
same,TGI,SF-268 CNS,14.3 µM
same,TGI,SF-295 CNS,20.2 µM
same,TGI,RXF 393 renal,3.14 µM
same,TGI,MDA-MB-435,11.8 µM
same,TGI,OVCAR-5 ovarian,28.5 µM
same,TGI,ACHN renal,15.2 µM
same,TGI,MALME-3M melanoma,23.9 µM
same,TGI,UACC-62 melanoma,11.9 µM
CNC(=O)OC(C)CN1c2ccccc2Sc2ccccc21 (stereo not given),TGI,M14 melanoma,> 100 µM
same,TGI,HCT-15 colon,> 100 µM
same,TGI,HOP-62 NSCLC,> 100 µM
same,TGI,NCI-H522 lung,> 100 µM
same,TGI,OVCAR-8 ovarian,> 100 µM
same,TGI,SK-MEL-28 melanoma,> 100 µM
same,TGI,SNB-19 CNS,> 100 µM
same,TGI,NCI-H226 lung,> 100 µM
same,TGI,U251 CNS,> 100 µM
same,TGI,NCI-H23 lung,> 100 µM
same,TGI,HOP-92 NSCLC,> 100 µM
same,TGI,SF-539 CNS,> 100 µM
same,TGI,786-0 renal,> 100 µM
same,TGI,IGROV1 ovarian,> 100 µM
same,TGI,SN12C renal,> 100 µM
same,TGI,T-47D breast,> 100 µM
same,TGI,UACC-257 melanoma,> 100 µM
same,TGI,A549 NSCLC,> 100 µM
same,TGI,NCI-H460 lung,> 100 µM
same,TGI,HCC-2998 colon,> 100 µM
same,TGI,COLO 205 colon,> 100 µM
same,TGI,A498 renal,> 100 µM
same,TGI,MDA-MB-231 breast,> 100 µM
same,TGI,CCRF-CEM leukemia,> 100 µM
same,TGI,NCI/ADR-RES ovarian,> 100 µM
same,TGI,HS 578T breast,> 100 µM
same,TGI,MOLT-4 leukemia,> 100 µM
same,TGI,EKVX NSCLC,> 100 µM
same,TGI,SW-620 colon,> 100 µM
same,TGI,DU-145 prostate,> 100 µM
same,TGI,HL-60(TB) leukemia,> 100 µM
same,TGI,PC-3 prostate,> 100 µM
same,TGI,TK-10 renal,> 100 µM
same,TGI,HCT-116 colon,> 100 µM
same,TGI,SR leukemia,> 100 µM
same,TGI,KM12 colon,> 100 µM
same,TGI,OVCAR-3 ovarian,> 100 µM
same,TGI,SK-MEL-5 melanoma,> 100 µM
same,TGI,BT-549 breast,> 100 µM
same,TGI,MCF7 breast,> 100 µM
same,TGI,K-562 leukemia,> 100 µM
same,TGI,HT29 colon,> 100 µM
same,TGI,UO-31 renal,> 100 µM
same,TGI,LOX IMVI melanoma,> 100 µM
same,TGI,CAKI-1 renal,> 100 µM
same,TGI,OVCAR-4 ovarian,> 100 µM
same,TGI,SF-268 CNS,> 100 µM
same,TGI,SF-295 CNS,> 100 µM
same,TGI,RXF 393 renal,> 100 µM
same,TGI,SK-OV-3 ovarian,> 100 µM
same,TGI,MDA-MB-435,> 100 µM
same,TGI,OVCAR-5 ovarian,> 100 µM
same,TGI,ACHN renal,> 100 µM
same,TGI,MALME-3M melanoma,> 100 µM
same,TGI,UACC-62 melanoma,> 100 µM
COc1ccc(/C=C2/CCOC2=O)cc1,GI50,SNB-75 CNS,> 100 µM
same,TGI,SNB-75 CNS,> 100 µM
same,GI50,M14 melanoma,> 100 µM
same,TGI,M14 melanoma,> 100 µM
same,GI50,HCT-15 colon,> 100 µM
same,TGI,HCT-15 colon,> 100 µM
same,GI50,HOP-62 NSCLC,> 100 µM
same,TGI,HOP-62 NSCLC,> 100 µM
same,GI50,OVCAR-8 ovarian,> 100 µM
same,TGI,OVCAR-8 ovarian,> 100 µM
same,GI50,SK-MEL-28 melanoma,> 100 µM
same,TGI,SK-MEL-28 melanoma,> 100 µM
same,GI50,SNB-19 CNS,> 100 µM
same,TGI,SNB-19 CNS,> 100 µM
same,GI50,SK-MEL-2 melanoma,> 100 µM
same,TGI,SK-MEL-2 melanoma,> 100 µM
same,GI50,NCI-H226 lung,> 100 µM
same,TGI,NCI-H226 lung,> 100 µM
same,GI50,U251 CNS,> 100 µM
same,TGI,U251 CNS,> 100 µM
same,GI50,NCI-H23 lung,> 100 µM
same,TGI,NCI-H23 lung,> 100 µM
same,GI50,HOP-92 NSCLC,> 100 µM
same,TGI,HOP-92 NSCLC,> 100 µM
same,GI50,SF-539 CNS,> 100 µM
same,TGI,SF-539 CNS,> 100 µM
same,GI50,786-0 renal,> 100 µM
same,TGI,786-0 renal,> 100 µM
same,GI50,IGROV1 ovarian,> 100 µM
same,TGI,IGROV1 ovarian,> 100 µM
same,GI50,SN12C renal,> 100 µM
same,TGI,SN12C renal,> 100 µM
same,GI50,T-47D breast,> 100 µM
same,TGI,T-47D breast,> 100 µM
same,GI50,UACC-257 melanoma,> 100 µM
same,TGI,UACC-257 melanoma,> 100 µM
same,GI50,A549 NSCLC,> 100 µM
same,TGI,A549 NSCLC,> 100 µM
same,GI50,NCI-H460 lung,> 100 µM
same,TGI,NCI-H460 lung,> 100 µM
same,GI50,COLO 205 colon,> 100 µM
same,TGI,COLO 205 colon,> 100 µM
same,GI50,A498 renal,14.9 µM
same,TGI,A498 renal,> 100 µM
same,GI50,MDA-MB-231 breast,> 100 µM
same,TGI,MDA-MB-231 breast,> 100 µM
same,GI50,CCRF-CEM leukemia,> 100 µM
same,TGI,CCRF-CEM leukemia,> 100 µM
same,GI50,NCI/ADR-RES ovarian,> 100 µM
same,TGI,NCI/ADR-RES ovarian,> 100 µM
same,GI50,MOLT-4 leukemia,> 100 µM
same,TGI,MOLT-4 leukemia,> 100 µM
same,GI50,SW-620 colon,> 100 µM
same,TGI,SW-620 colon,> 100 µM
same,GI50,DU-145 prostate,> 100 µM
same,TGI,DU-145 prostate,> 100 µM
same,GI50,HL-60(TB) leukemia,> 100 µM
same,TGI,HL-60(TB) leukemia,> 100 µM
same,GI50,PC-3 prostate,> 100 µM
same,TGI,PC-3 prostate,> 100 µM
same,GI50,TK-10 renal,> 100 µM
same,TGI,TK-10 renal,> 100 µM
same,GI50,HCT-116 colon,> 100 µM
same,TGI,HCT-116 colon,> 100 µM
same,GI50,SR leukemia,> 100 µM
same,TGI,SR leukemia,> 100 µM
same,GI50,KM12 colon,> 100 µM
same,TGI,KM12 colon,> 100 µM
same,GI50,OVCAR-3 ovarian,> 100 µM
same,TGI,OVCAR-3 ovarian,> 100 µM
same,GI50,SK-MEL-5 melanoma,> 100 µM
same,TGI,SK-MEL-5 melanoma,> 100 µM
same,GI50,BT-549 breast,> 100 µM
same,TGI,BT-549 breast,> 100 µM
same,GI50,MCF7 breast,> 100 µM
same,TGI,MCF7 breast,> 100 µM
same,GI50,K-562 leukemia,> 100 µM
same,TGI,K-562 leukemia,> 100 µM
same,GI50,HT29 colon,> 100 µM
same,TGI,HT29 colon,> 100 µM
same,GI50,UO-31 renal,49.8 µM
same,TGI,UO-31 renal,> 100 µM
same,GI50,LOX IMVI melanoma,> 100 µM
same,TGI,LOX IMVI melanoma,> 100 µM
same,GI50,OVCAR-4 ovarian,> 100 µM
same,TGI,OVCAR-4 ovarian,> 100 µM
same,GI50,SF-268 CNS,> 100 µM
same,TGI,SF-268 CNS,> 100 µM
same,GI50,RXF 393 renal,> 100 µM
same,TGI,RXF 393 renal,> 100 µM
same,GI50,SK-OV-3 ovarian,> 100 µM
same,TGI,SK-OV-3 ovarian,> 100 µM
same,GI50,OVCAR-5 ovarian,> 100 µM
same,TGI,OVCAR-5 ovarian,> 100 µM
same,GI50,ACHN renal,> 100 µM
same,TGI,ACHN renal,> 100 µM
same,GI50,MALME-3M melanoma,> 100 µM
same,TGI,MALME-3M melanoma,> 100 µM
same,GI50,UACC-62 melanoma,> 100 µM
same,TGI,UACC-62 melanoma,> 100 µM
